Test results published in patent publication US8759334B2, “Compounds useful for the treatment of metabolic and inflammatory diseases” (Galapagos NV, priority 2011, dated 2014).
pIC50: −log10 of the molar value.

target: T1, GPR43 (Homo sapiens, UniProt O15552); assay: Calcium mobilization assay with probenecid; type: cell-based; conditions: GPR43 stably expressing cells; triggered with sodium acetate at EC80; 2.5 mM probenecid; read-out: GPR43 assay with probenicid IC50
T1 construct: expressed in transfected cells
T1 sequence (O15552 1-330): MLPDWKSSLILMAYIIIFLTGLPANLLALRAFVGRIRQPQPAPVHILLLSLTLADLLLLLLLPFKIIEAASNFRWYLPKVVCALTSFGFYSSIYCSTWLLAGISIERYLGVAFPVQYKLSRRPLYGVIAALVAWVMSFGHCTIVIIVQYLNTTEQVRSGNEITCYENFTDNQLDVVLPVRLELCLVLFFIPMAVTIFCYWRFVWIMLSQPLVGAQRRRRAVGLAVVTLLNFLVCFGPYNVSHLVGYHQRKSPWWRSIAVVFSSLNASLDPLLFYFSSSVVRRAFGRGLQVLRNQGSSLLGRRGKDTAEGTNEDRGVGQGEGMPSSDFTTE
Method: The following assay can be used for determination of GPR43 activation. The assay measures intracellular calcium release induced by activation of GPR43. On day 1, GPR43 stably expressing cells were detached with mild trypsinization (Trypsin, 0.25% with EDTA 4Na, 5× diluted in PBS) centrifuged at 1000 rpm for 5 min and resuspended at 6.000 cells/25 […] medium (DMEM supplemented with 10% FBS, 10 μg/mL puromycin and 1% Pen/Strep). The cells were distributed in poly-D-lysine coated 384 well plates (black with clear bottom, 25 μL/well) and incubated overnight at 37° C. 10% CO2.
On day 2, 25 μL of a fluorescent Ca^2+ indicator (Calcium 4 assay; Molecular Devices) supplemented with 2.5 mM probenecid was added on top of the cells and incubated for 2 h at 37° C. Subsequently, compounds at increasing concentration (10 μL/well) were added to the plate and incubated for 15 min at 37° C.
To measure agonist activity of the compounds, compound was added to the well and the Ca^2+-flux was measured simultaneously to the […] of compound.

`CC1(C(=O)N(CCCC(=O)O)Cc2ccc(Cl)cc2)CCN1C(=O)Oc1ccc(F)cc1Cl` (stereo not shown) [Compound 239, 4-(1-((2-chloro-4-fluorophenoxy)carbonyl)-N-(4-chlorobenzyl)-2-methylazetidine-2-carboxamido)butanoic acid] was tested. Which pIC50 did it give?
Its pIC50 is under 6.00.

How did the pIC50 turn out when `COC(=O)CCN(Cc1ccc(Cl)cc1)C(=O)C1(C)CCN1C(=O)Cc1coc2ccccc12` (stereo not shown) [Compound 150, 3-[[1-(2-Benzofuran-3-yl-acetyl)-2-methyl-azetidine-2-carbonyl]-(4-chloro-benzyl)-amino]-propionic acid methyl ester] was run?
The pIC50 was 6.30 to 7.00.

`CCOC(=O)CCCN(Cc1ccc2cn[nH]c2c1)C(=O)C1(C)CCN1C(=O)Cc1coc2ccccc12` (stereo not shown) [Compound 152, 4-[[1-(2-Benzofuran-3-yl-acetyl)-2-methyl-azetidine-2-carbonyl]-(1H-indazol-6-ylmethyl)-amino]-butyric acid ethyl ester] was tested. Which pIC50 did it give?
The pIC50 was 6.30 to 7.00.

`COc1cccc(OC(=O)N2CCC2(C)C(=O)N(CCCC(=O)O)Cc2ccc(Cl)cc2)c1` (stereo not shown) [Compound 218, 4-(N-(4-chlorobenzyl)-1-((3-methoxyphenoxy)carbonyl)-2-methylazetidine-2-carboxamido)butanoic acid] was tested. Which pIC50 did it give?
Its pIC50 is 6.30 to 7.00.

With `COC(=O)CCN(Cc1ccc(Cl)cc1)C(=O)C1(C)CCN1C(=O)c1csc2ccccc12` (stereo not shown) [Compound 151, 3-[[1-(Benzo[b]thiophene-3-carbonyl)-2-methyl-azetidine-2-carbonyl]-(4-chloro-benzyl)-amino]-propionic acid methyl ester] as the molecule, how does the pIC50 read?
The pIC50 was 6.30 to 7.00.

How did the pIC50 turn out when `CN(Cc1ccc(Cl)cc1)C(=O)C1(C)CCN1C(=O)Cc1ccc(F)c2ccccc12` (stereo not shown) [Compound 106, 1-[2-(4-Fluoro-naphthalen-1-yl)-acetyl]-2-methyl-azetidine-2-carboxylic acid (4-chloro-benzyl)-methyl-amide] was run?
Its pIC50 is under 6.00.

With `Cc1cc(C)cc(OC(=O)N2CCC2(C)C(=O)N(CCCC(=O)O)Cc2ccc(Cl)cc2)c1` (stereo not shown) [Compound 196, 2-[(3-Carboxy-propyl)-(4-chloro-benzyl)-carbamoyl]-2-methyl-azetidine-1-carboxylic acid 3,5-dimethyl-phenyl ester] as the molecule, how does the pIC50 read?
Its pIC50 is 7.00 to 11.00.

`COc1ccc(CNS(=O)(=O)CCCN(Cc2ccc(Cl)cc2)C(=O)C2(C)CCN2C(=O)Cc2csc3ccccc23)c(OC)c1` (stereo not shown) [Compound 178, 1-(2-Benzo[b]thiophen-3-yl-acetyl)-2-methyl-azetidine-2-carboxylic acid (4-chloro-benzyl)-[3-(2,4-dimethoxy-benzylsulfamoyl)-propyl]-amide] was tested. Which pIC50 did it give?
Its pIC50 is under 6.00.

How did the pIC50 turn out when `CC(C)C1(C(=O)N(CCCC(=O)O)Cc2cccc(Cl)c2)CCN1C(=O)c1csc2ccccc12` (stereo not shown) [Compound 203, 4-[[1-(Benzo[b]thiophene-3-carbonyl)-2-isopropyl-azetidine-2-carbonyl]-(3-chloro-benzyl)-amino]-butyric acid] was run?
Its pIC50 is 7.00 to 11.00.

`CC[C@]1(C(=O)N(CCCS(N)(=O)=O)[C@@H](C)c2ccc(Cl)cc2)CCN1C(=O)c1csc2ccccc12` [Compound 244, (R)-1-(benzo[b]thiophene-3-carbonyl)-N-((S)-1-(4-chlorophenyl)ethyl)-2-ethyl-N-(3-sulfamoylpropyl)azetidine-2-carboxamide] was tested. Which pIC50 did it give?
The pIC50 was under 6.00.

With `CC1(C(=O)N(CCCC(=O)O)Cc2ccc(Cl)cc2)CCN1C(=O)c1ccc2sccc2c1` (stereo not shown) [Compound 135, 4-[[1-(Benzo[b]thiophene-5-carbonyl)-2-methyl-azetidine-2-carbonyl]-(4-chloro-benzyl)-amino]-butyric acid] as the molecule, how does the pIC50 read?
Its pIC50 is 6.00 to 6.30.

With `CS(=O)(=O)NC(=O)CCCN(Cc1cccc(Cl)c1)C(=O)C1(Cc2ccccc2F)CCN1C(=O)c1csc2ccccc12` (stereo not shown) [Compound 243, 1-(benzo[b]thiophene-3-carbonyl)-N-(3-chlorobenzyl)-2-(2-fluorobenzyl)-N-(4-(methylsulfonamido)-4-oxobutyl)azetidine-2-carboxamide] as the molecule, how does the pIC50 read?
Its pIC50 is 6.00 to 6.30.

How did the pIC50 turn out when `CC(C)C1(C(=O)N(CCCS(N)(=O)=O)Cc2cccc(Cl)c2)CCN1C(=O)c1csc2ccccc12` (stereo not shown) [Compound 217, 1-(benzo[b]thiophene-3-carbonyl)-N-(3-chlorobenzyl)-2-isopropyl-N-(3-sulfamoylpropyl)azetidine-2-carboxamide] was run?
The pIC50 was 6.30 to 7.00.

`CC1(C(=O)N(CCCC(=O)O)Cc2ccc(Cl)cc2)CCN1C(=O)Oc1ccc(C(F)(F)F)cc1` (stereo not shown) [Compound 226, 4-(N-(4-chlorobenzyl)-2-methyl-1-((4-(trifluoromethyl)phenoxy)carbonyl)azetidine-2-carboxamido)butanoic acid] was tested. Which pIC50 did it give?
The pIC50 was under 6.00.

With `CCC1(C(=O)N(CCCS(N)(=O)=O)Cc2ccc(Cl)cc2)CCN1C(=O)c1csc2ccccc12` (stereo not shown) [Compound 216, 1-(benzo[b]thiophene-3-carbonyl)-N-(4-chlorobenzyl)-2-ethyl-N-(3-sulfamoylpropyl)azetidine-2-carboxamide] as the molecule, how does the pIC50 read?
The pIC50 was 6.30 to 7.00.

With `CCOc1cc(CCN(Cc2ccc(Cl)cc2)C(=O)C2(C)CCN2C(=O)Cc2cc(C)cc(C)c2)nn1C` (stereo not shown) [Compound 118, 1-[2-(3,5-Dimethyl-phenyl)-acetyl]-2-methyl-azetidine-2-carboxylic acid (4-chloro-benzyl)-[2-(5-ethoxy-1-methyl-1H-pyrazol-3-yl)-ethyl]-amide] as the molecule, how does the pIC50 read?
The pIC50 was under 6.00.

With `Cc1cc(C)cc(N(C)C(=O)N2CCC2(C)C(=O)N(CCCC(=O)O)Cc2ccc(Cl)cc2)c1` (stereo not shown) [Compound 201, 4-((4-Chloro-benzyl)-{1-[(3,5-dimethyl-phenyl)-methyl-carbamoyl]-2-methyl-azetidine-2-carbonyl}-amino)-butyric acid] as the molecule, how does the pIC50 read?
Its pIC50 is under 6.00.

With `CS(=O)(=O)NC(=O)CCCN(Cc1cccc(Cl)c1)C(=O)C1(Cc2ccccc2)CCN1C(=O)c1csc2ccccc12` (stereo not shown) [Compound 230, 1-(benzo[b]thiophene-3-carbonyl)-2-benzyl-N-(3-chlorobenzyl)-N-(4-(methylsulfonamido)-4-oxobutyl)azetidine-2-carboxamide] as the molecule, how does the pIC50 read?
Its pIC50 is 6.30 to 7.00.

How did the pIC50 turn out when `CC1(C(=O)N(CCCC(=O)O)c2ccc(Cl)nc2)CCN1C(=O)c1csc2ccccc12` (stereo not shown) [Compound 249, 4-(1-(benzo[b]thiophene-3-carbonyl)-N-(6-chloropyridin-3-yl)-2-methylazetidine-2-carboxamido)butanoic acid] was run?
Its pIC50 is under 6.00.

`CC1(C(=O)N(CCCC(=O)N2CCOCC2)Cc2ccc(Cl)cc2)CCN1C(=O)Cc1coc2ccccc12` (stereo not shown) [Compound 140, 1-(2-Benzofuran-3-yl-acetyl)-2-methyl-azetidine-2-carboxylic acid (4-chloro-benzyl)-(4-morpholin-4-yl-4-oxo-butyl)-amide] was tested. Which pIC50 did it give?
Its pIC50 is under 6.00.

With `CCOC(=O)CCCN(Cc1ccc(C(F)(F)F)cc1)C(=O)C1(C)CCN1C(=O)Cc1cc(C)cc(C)c1` (stereo not shown) [Compound 165, 4-[{1-[2-(3,5-Dimethyl-phenyl)-acetyl]-2-methyl-azetidine-2-carbonyl}-(4-trifluoromethyl-benzyl)-amino]-butyric acid ethyl ester] as the molecule, how does the pIC50 read?
Its pIC50 is 6.00 to 6.30.

With `CC1(C(=O)N(CCCS(N)(=O)=O)Cc2ccc(Cl)cc2)CCN1C(=O)Cc1csc2ccccc12` (stereo not shown) [Compound 181, 1-(2-Benzo[b]thiophen-3-yl-acetyl)-2-methyl-azetidine-2-carboxylic acid (4-chloro-benzyl)-(3-sulfamoyl-propyl)-amide] as the molecule, how does the pIC50 read?
Its pIC50 is 7.00 to 11.00.

How did the pIC50 turn out when `CN(Cc1ccc(Cl)cc1)C(=O)C1(C)CCN1C(=O)c1ccc2occc2c1` (stereo not shown) [Compound 121, 1-(benzofuran-5-carbonyl)-N-(4-chlorobenzyl)-N,2-dimethylazetidine-2-carboxamide] was run?
The pIC50 was under 6.00.

How did the pIC50 turn out when `O=C(O)CCCN(Cc1cccc(Cl)c1)C(=O)C1(Cc2ccccc2)CCN1C(=O)c1csc2ccccc12` (stereo not shown) [Compound 199, 4-[[1-(Benzo[b]thiophene-3-carbonyl)-2-benzyl-azetidine-2-carbonyl]-(3-chloro-benzyl)-amino]-butyric acid] was run?
Its pIC50 is 6.30 to 7.00.

With `COC(=O)CCN(Cc1cccc(Cl)c1)C(=O)C1(C)CCN1C(=O)Cc1csc2ccccc12` (stereo not shown) [Compound 173, 3-[[1-(2-Benzo[b]thiophen-3-yl-acetyl)-2-methyl-azetidine-2-carbonyl]-(3-chloro-benzyl)-amino]-propionic acid methyl ester] as the molecule, how does the pIC50 read?
Its pIC50 is 6.30 to 7.00.

`CCOC(=O)CCCN(Cc1ccc2cn[nH]c2c1)C(=O)C1(C)CCN1C(=O)c1csc2ccccc12` (stereo not shown) [Compound 153, 4-[[1-(Benzo[b]thiophene-3-carbonyl)-2-methyl-azetidine-2-carbonyl]-(1H-indazol-6-ylmethyl)-amino]-butyric acid ethyl ester] was tested. Which pIC50 did it give?
The pIC50 was 6.30 to 7.00.

How did the pIC50 turn out when `CC1(C(=O)N(CCCC(=O)O)c2cccc(Cl)c2)CCN1C(=O)c1csc2ccccc12` (stereo not shown) [Compound 248, 4-(1-(benzo[b]thiophene-3-carbonyl)-N-(3-chlorophenyl)-2-methylazetidine-2-carboxamido)butanoic acid] was run?
The pIC50 was 6.30 to 7.00.

`CC1(C(=O)N(CCCC(=O)O)Cc2ccc3scnc3c2)CCN1C(=O)c1csc2ccccc12` (stereo not shown) [Compound 184, 4-{[1-(Benzo[b]thiophene-3-carbonyl)-2-methyl-azetidine-2-carbonyl]-benzothiazol-5-ylmethyl-amino}-butyric acid] was tested. Which pIC50 did it give?
Its pIC50 is 6.30 to 7.00.
